Here are results for six molecules from patent US20230248665A1, “COMPOSITION COMPRISING DIMETHYLCHALCONE DERIVATIVE FOR PREVENTION OR TREATMENT OF METABOLIC DISEASE” (SEOUL NATIONAL UNIVERSITY R & DB FOUNDATION, priority 2020, published 2023).

Holding throughout (format): cell-based
The subject of one test is AMPK. The test is described as follows: AMPK activity, western blotting of phosphorylated AMPK in C2C12 myotubes. The following applies: 10 µM, 24 hours, FIG. 2. From the text:
AMP-activated protein kinase (AMPK) is a member of serine/threonine kinases, and is an enzyme known as an energy sensor which senses the intracellular energy state. Moreover, the activation of AMPK is known to show the effect of increasing glucose transport and promoting fatty acid oxidation in skeletal muscle, and to […] the synthesis of cholesterol and triglycerides, decrease lipogenesis, and increase fatty acid oxidation, and ketogenesis, and the like in the liver. Further, the activation of AMPK is known to reduce adipogenesis in adipose tissue and increase insulin secretion in pancreatic beta cells, thereby being able to be applied to the treatment of various metabolic diseases. Therefore, western blotting was performed in order to confirm the effect of the DMC derivatives of Example 1 on AMPK activity. More specifically, the C2C12 myoblasts were primarily cultured in DMEM supplemented with 10% fetal bovine serum, and then cultured in DMEM supplemented with 2% horse serum for 5 days to differentiate into myotubes. Then, the differentiated myotubes were treated with 10 µM DMC derivative and cultured for 24 hours, and then cells were collected, and disrupted using an ultrasonic disperser to obtain proteins. Next, western blotting was performed using a pAMPK antibody (Cell Signaling Technology) and an AMPK antibody (Cell Signaling Technology) to measure the amount of phosphorylated AMPK. 1 mM AICAR was used as a positive control, and 20 µg of protein was used for each sample in western blotting.
A general note: Immunoblotting shows a protein as a band on a membrane.

Test [1] deals with rat aortic smooth muscle cells. The test is described as follows: PDGF-induced migration of vascular smooth muscle cells. As to conditions: 1 µM with 10 ng/mL PDGF; FIG. 4. The method, then:
Proliferation and migration of vascular smooth muscle cells are known to be essential steps in the progression of vascular diseases such as restenosis and arteriosclerosis. Therefore, in order to confirm the effect of the DMC derivatives of Example 1 on the migration of rat aortic smooth muscle cells, smooth muscle cells were treated with 10 ng/mL platelet-derived growth factor (PDGF) and 1 µM DMC derivative and cultured. Then, the degree of cell migration was measured.

In test [2] the test system is human kidney proximal tubule epithelial cell (HK-2) cell line. Nature of the test: Antioxidant effect, intracellular reactive oxygen species (DCF-DA) in HK-2 kidney cells after H2O2. The following applies: 1 µM for 18 hours, then 500 µM H2O2 for 6 hours, FIG. 6. How it is done: First, the antioxidant effect was checked using kidney cells. More specifically, a human kidney proximal tubule epithelial cell (HK-2) cell line was treated with 1 µM DMC derivative and cultured for 18 hours. Then, 500 µM H2O2 was added to the culture medium and the culture medium was incubated for 6 hours. Thereafter, the amount of intracellular reactive oxygen species (iROS) was measured using dichlorohydro-fluorescein diacetate (DCF-DA).

Test [3] relates to vascular endothelial cells (HUVECs) and THP-1 (human monocyte) immune cells. The test is described as follows: Binding of THP-1 immune cells to TNFα-treated vascular endothelial cells (HUVECs). As to conditions: 10 µM with 10 ng/mL TNFα, 24 hours, then THP-1 for 1 hour; FIG. 5. How it is done:
In the early stages of progression of vascular diseases such as arteriosclerosis, adhesion materials are expressed in vascular endothelial cells due to various environmental factors, thereby increasing the binding of immune cells. Therefore, in order to check whether the DMC derivatives of Example 1 affect the binding between vascular endothelial cells and immune cells, vascular endothelial cells (HUVECs) were treated with 10 ng/mL TNFα and 10 µM DMC derivative and cultured for 24 hours. Then, THP-1 (human monocyte) immune cells labeled with a fluorescent protein were added to the culture solution, and the cells were additionally cultured for 1 hour. After the culture was completed, unbound immune cells were removed using a phosphate buffer solution, and then the degree of binding of immune cells to vascular endothelial cells was determined by measuring the intensity of fluorescence.

For `COc1c(C)c(O)c(C)c(O)c1C(=O)/C=C/c1ccc(C)cc1` [Chemical Formula 3, 1-(2′,4′-dihydroxy-6′-methoxy-3′,5′-dimethylphenyl)-3-(4-tolyl)-2-propen-1-one], the “activity of AMPK (phosphorylated AMPK)” value with AMPK was “increased the activity of AMPK similarly to or more effectively than the positive controls”. Further, the “migration of vascular smooth muscle cells” value (“migration” for short) in test [1] was “similarly or more effectively suppressed cell migration by PDGF than AICAR and Rosi, which were used as positive controls, and DMC”. Also, the “amount of intracellular reactive oxygen species (ROS)” value (shortened to “amount”) in test [2] is reported as “effectively reduced ROS”. In test [3], the “binding of immune cells to vascular endothelial cells (fluorescence)” value (from here on “binding of immune cells”) is on record as “similarly or more effectively suppressed the binding of immune cells than Rosi”.

Consider `COCOc1c(C)c(O)c(C(=O)/C=C/c2cc(OC)ccc2OC)c(OC)c1C` [Chemical Formula 15, 1-(2′-hydroxy-4′-(methoxymethoxy)-6′-methoxy-3′,5′-dimethylphenyl)-3-(2,5-dimethoxyphenyl)-2-propen-1-one], for which the “activity of AMPK (phosphorylated AMPK)” value with AMPK is “increased the activity of AMPK similarly to or more effectively than the positive controls”. The “migration” value in test [1] is “similarly or more effectively suppressed cell migration by PDGF than AICAR and Rosi, which were used as positive controls, and DMC”. Besides, the “amount” value in test [2] is “effectively reduced ROS”. Also, the “binding of immune cells” value in test [3] is “similarly or more effectively suppressed the binding of immune cells than Rosi”.

Consider `COc1c(C)c(OC)c(C(=O)/C=C/c2ccc(N(C)C)cc2)c(OC)c1C` [Chemical Formula 23, 1-(3′,5′-dimethyl-2′,4′,6′-trimethoxyphenyl)-3-(4-(N,N-dimethylamino)phenyl)-2-propen-1-one], for which the “activity of AMPK (phosphorylated AMPK)” value with AMPK was “increased the activity of AMPK similarly to or more effectively than the positive controls”. The “migration” value in test [1] was “similarly or more effectively suppressed cell migration by PDGF than AICAR and Rosi, which were used as positive controls, and DMC”. Further, the “amount” value in test [2] is recorded as “effectively reduced ROS”. For the same molecule, the “binding of immune cells” value in test [3] is “similarly or more effectively suppressed the binding of immune cells than Rosi”.

Consider `COCOc1c(C)c(O)c(C(=O)/C=C/c2ccc(F)cc2)c(OC)c1C` [Chemical Formula 24, 1-(2′-hydroxy-4′-(methoxymethoxy)-6′-methoxy-3′,5′-dimethylphenyl)-3-(4-fluorophenyl)-2-propen-1-one], for which, in the test with AMPK, the “activity of AMPK (phosphorylated AMPK)” value is “increased the activity of AMPK similarly to or more effectively than the positive controls”. Further, the “migration” value in test [1] is “similarly or more effectively suppressed cell migration by PDGF than AICAR and Rosi, which were used as positive controls, and DMC”. Further, the “amount” value in test [2] is “effectively reduced ROS”. In test [3], the “binding of immune cells” value was “similarly or more effectively suppressed the binding of immune cells than Rosi”.

Regarding `COCOc1c(C)c(O)c(C(=O)/C=C/c2ccccc2)c(OC)c1C` [Chemical Formula 25, 1-(2′-hydroxy-4′-(methoxymethoxy)-6′-methoxy-3′,5′-dimethylphenyl)-3-phenyl-2-propen-1-one], in the test on AMPK, the “activity of AMPK (phosphorylated AMPK)” value is “increased the activity of AMPK similarly to or more effectively than the positive controls”. For the same molecule, in test [1], the “migration” value is “similarly or more effectively suppressed cell migration by PDGF than AICAR and Rosi, which were used as positive controls, and DMC”. Further, the “amount” value in test [2] is listed as “effectively reduced ROS”. In addition, in test [3], the “binding of immune cells” value is “similarly or more effectively suppressed the binding of immune cells than Rosi”.

In the case of `CCOc1ccc(/C=C/C(=O)c2c(O)c(C)c(O)c(C)c2OC)cc1F` [Chemical Formula 33, 1-(2′,4′-dihydroxy-6′-methoxy-3′,5′-dimethylphenyl)-3-(4-ethoxy-3-fluorophenyl)-2-propen-1-one], in test [1], the “migration” value is “similarly or more effectively suppressed cell migration by PDGF than AICAR and Rosi, which were used as positive controls, and DMC”. Further, the “amount” value in test [2] was “effectively reduced ROS”. In addition, the “binding of immune cells” value in test [3] is given as “similarly or more effectively suppressed the binding of immune cells than Rosi”.
